# ChEMBL document CHEMBL3046832, “Synthesis of some sulfonamides, disubstituted sulfonylureas or thioureas and some structurally related variants. A class of promising antitumor agents” (2007)
# Experiments:
# Type in all cases: functional
# [1] = tested on: UACC-257; assay: Cytotoxicity against Homo sapiens (human) UACC257 cells after 48 hr by SRB assay; details: UACC-257, 48 h
# [2] = tested on: OVCAR-5; assay: Cytotoxicity against Homo sapiens (human) OVCAR5 cells after 48 hr by SRB assay; details: OVCAR-5, 48 h
# [3] = tested on: NCI-H460; assay: Cytotoxicity against Homo sapiens (human) NCI-H460 cells assessed as cellular growth after 48 hr by Alamar blue assay; parameters: concentration or dose not given beside the values
# [4] = tested on: SK-OV-3; assay: Cytotoxicity against Homo sapiens (human) SKOV3 cells after 48 hr by SRB assay; details: SK-OV-3, 48 h
# [5] = tested on: SK-MEL-2; assay: Cytotoxicity against Homo sapiens (human) SK-MEL-2 cells after 48 hr by SRB assay; details: SK-MEL-2, 48 h
# [6] = tested on: SN12C; assay: Cytotoxicity against Homo sapiens (human) SN12C cells after 48 hr by SRB assay
# [7] = Cytotoxicity against Homo sapiens (human) NCI-H322 cells after 48 hr by SRB assay; details: NCI-H322, 48 h
# [8] = Cytotoxicity against Homo sapiens (human) non-small cell lung cancer cells after 48 hr by SRB assay; details: Cancer cell lines
# [9] = Cytotoxicity against Homo sapiens (human) NCI-ADR-RES cells after 48 hr by SRB assay
# [10] = Cytotoxicity against Homo sapiens (human) ovarian cancer cells after 48 hr by SRB assay; details: Cancer cell lines
# [11] = tested on: HOP-62; assay: Cytotoxicity against Homo sapiens (human) HOP62 cells after 48 hr by SRB assay; details: HOP-62, 48 h
# [12] = Cytotoxicity against Homo sapiens (human) renal cancer cells after 48 hr by SRB assay; details: Cancer cell lines
# [13] = tested on: BT-549; assay: Cytotoxicity against Homo sapiens (human) BT549 cells after 48 hr by SRB assay; details: BT-549, 48 h
# [14] = tested on: HCT-15; assay: Cytotoxicity against Homo sapiens (human) HCT15 cells after 48 hr by SRB assay; details: HCT-15, 48 h
# [15] = tested on: CAKI-1; assay: Cytotoxicity against Homo sapiens (human) Caki1 cells after 48 hr by SRB assay; details: CAKI-1, 48 h
# [16] = tested on: IGROV-1; assay: Cytotoxicity against Homo sapiens (human) IGROV1 cells after 48 hr by SRB assay; details: IGROV-1, 48 h
# [17] = tested on: OVCAR-4; assay: Cytotoxicity against Homo sapiens (human) OVCAR4 cells after 48 hr by SRB assay; details: OVCAR-4, 48 h
# [18] = tested on: NCI-H522; assay: Cytotoxicity against Homo sapiens (human) NCI-H522 cells after 48 hr by SRB assay; details: NCI-H522, 48 h
# [19] = tested on: KM12; assay: Cytotoxicity against Homo sapiens (human) KM12 cells after 48 hr by SRB assay; details: KM12, 48 h
# [20] = Cytotoxicity against Homo sapiens (human) leukemia cells after 48 hr by SRB assay; details: Leukemia cell
# [21] = tested on: RPMI-8226; assay: Cytotoxicity against Homo sapiens (human) RPMI8226 cells after 48 hr by SRB assay; details: RPMI-8226, 48 h
# [22] = Cytotoxicity against Homo sapiens (human) breast cancer cells after 48 hr by SRB assay; details: Cancer cell lines
# [23] = tested on: MDA-MB-231; assay: Cytotoxicity against Homo sapiens (human) MDA-MB-231 cells after 48 hr by SRB assay; details: MDA-MB-231, 48 h
# [24] = tested on: EKVX; assay: Cytotoxicity against Homo sapiens (human) EKVX cells after 48 hr by SRB assay
# [25] = tested on: A549; assay: Cytotoxicity against Homo sapiens (human) A549 cells after 48 hr by SRB assay; details: A549, 48 h
# [26] = tested on: MCF7; assay: Cytotoxicity against Homo sapiens (human) MCF7 cells after 48 hr by SRB assay; details: MCF7, 48 h
# [27] = tested on: OVCAR-3; assay: Cytotoxicity against Homo sapiens (human) OVCAR3 cells after 48 hr by SRB assay; details: OVCAR-3, 48 h
# [28] = tested on: HCC 2998; assay: Cytotoxicity against Homo sapiens (human) HCC2998 cells after 48 hr by SRB assay; details: HCC 2998, 48 h
# [29] = tested on: Hs-578T; assay: Cytotoxicity against Homo sapiens (human) Hs578T cells after 48 hr by SRB assay
# [30] = tested on: T47D; assay: Cytotoxicity against Homo sapiens (human) T47D cells after 48 hr by SRB assay
# [31] = tested on: HT-29; assay: Cytotoxicity against Homo sapiens (human) HT-29 cells after 48 hr by SRB assay; details: HT-29, 48 h
# [32] = tested on: UACC-62; assay: Cytotoxicity against Homo sapiens (human) UACC62 cells after 48 hr by SRB assay; details: UACC-62, 48 h
# [33] = tested on: SW-620; assay: Cytotoxicity against Homo sapiens (human) SW620 cells after 48 hr by SRB assay; details: SW-620, 48 h
# [34] = Cytotoxicity against Homo sapiens (human) prostate cancer cells after 48 hr by SRB assay; details: Cancer cell lines
# [35] = tested on: 786-0; assay: Cytotoxicity against Homo sapiens (human) 786-0 cells after 48 hr by SRB assay; details: 786-0, 48 h
# [36] = tested on: M14; assay: Cytotoxicity against Homo sapiens (human) M14 cells after 48 hr by SRB assay; details: M14, 48 h
# [37] = tested on: RXF 393; assay: Cytotoxicity against Homo sapiens (human) RXF393 cells after 48 hr by SRB assay; details: RXF 393, 48 h
# [38] = tested on: SNB-75; assay: Cytotoxicity against Homo sapiens (human) SNB75 cells after 48 hr by SRB assay; details: SNB-75, 48 h
# [39] = Cytotoxicity against Homo sapiens (human) melanoma cells after 48 hr by SRB assay; details: Melanoma cell
# [40] = tested on: SF-268; assay: Cytotoxicity against Homo sapiens (human) SF268 cells assessed as cellular growth after 48 hr by Alamar blue assay; parameters: concentration or dose not given beside the values
# [41] = tested on: MCF7; assay: Cytotoxicity against Homo sapiens (human) MCF7 cells assessed as cellular growth after 48 hr by Alamar blue assay; parameters: concentration or dose not given beside the values
# [42] = tested on: U-251; assay: Cytotoxicity against Homo sapiens (human) U251 cells after 48 hr by SRB assay; details: U-251, 48 h
# [43] = tested on: UO-31; assay: Cytotoxicity against Homo sapiens (human) UO31 cells after 48 hr by SRB assay; details: UO-31, 48 h
# [44] = tested on: SF-295; assay: Cytotoxicity against Homo sapiens (human) SF295 cells after 48 hr by SRB assay; details: SF-295, 48 h
# [45] = tested on: NCI-H23; assay: Cytotoxicity against Homo sapiens (human) NCI-H23 cells after 48 hr by SRB assay; details: NCI-H23, 48 h
# [46] = tested on: NCI-H460; assay: Cytotoxicity against Homo sapiens (human) NCI-H460 cells after 48 hr by SRB assay; details: NCI-H460, 48 h
# [47] = tested on: SF-539; assay: Cytotoxicity against Homo sapiens (human) SF539 cells after 48 hr by SRB assay; details: SF-539, 48 h
compound,measurement,setting,value
O=C(Nc1ccccc1)NS(=O)(=O)c1ccc(N2N=C3c4ccccc4CC3C2c2cccnc2)cc1 (stereo not drawn),GI50,[1],26.6 µM
same,GI50,[2],26.8 µM
same,Activity,[3],<=32%
same,GI50,[4],> 100 µM
same,GI50,[5],35.6 µM
same,GI50,[6],30.4 µM
same,GI50,[7],17.3 µM
same,GI50,[8],30 µM
same,TGI,[8],56.4 µM
same,GI50,[9],64.4 µM
same,GI50,[10],48.6 µM
same,TGI,[10],90.8 µM
same,GI50,[11],20.4 µM
same,GI50,[12],31.7 µM
same,TGI,[12],86.4 µM
same,GI50,[13],30.6 µM
same,GI50,[14],23.1 µM
same,GI50,[15],26.4 µM
same,GI50,[16],16.2 µM
same,GI50,[17],> 100 µM
same,GI50,[18],17.7 µM
same,GI50,[19],24.8 µM
same,GI50,[20],26.5 µM
same,TGI,[20],91.4 µM
same,GI50,[21],27.1 µM
same,GI50,[22],42.4 µM
same,TGI,[22],87.8 µM
same,GI50,[23],19.8 µM
same,GI50,[24],27.8 µM
same,GI50,[25],29.2 µM
same,GI50,[26],27 µM
same,GI50,[27],21.6 µM
same,GI50,[28],17.3 µM
same,GI50,[29],40.7 µM
same,GI50,[30],93 µM
same,GI50,[31],37.9 µM
same,GI50,[32],17.8 µM
same,GI50,[33],34 µM
same,GI50,[34],36.4 µM
same,TGI,[34],52.1 µM
same,GI50,[35],35.5 µM
same,GI50,[36],24.9 µM
same,GI50,[37],45.3 µM
same,GI50,[38],> 100 µM
same,GI50,[39],30.8 µM
same,TGI,[39],49.3 µM
same,Activity,[40],<=32%
same,Activity,[41],<=32%
same,GI50,[42],31.9 µM
same,GI50,[43],48.8 µM
same,GI50,[44],20.6 µM
same,GI50,[45],20.8 µM
same,GI50,[46],38.5 µM
same,GI50,[47],30.6 µM
O=C(NC1CCCCC1)NS(=O)(=O)c1ccc(-n2nc3c(c2-c2cccs2)Cc2ccccc2-3)cc1,GI50,[1],24.8 µM
same,GI50,[2],26.6 µM
same,Activity,[3],<=32%
same,GI50,[4],44.5 µM
same,GI50,[5],23.6 µM
same,GI50,[6],21.5 µM
same,GI50,[7],37.9 µM
same,GI50,[8],38.7 µM
same,TGI,[8],46.7 µM
same,GI50,[9],20.4 µM
same,GI50,[10],25.3 µM
same,TGI,[10],80.3 µM
same,GI50,[11],> 100 µM
same,GI50,[12],21.3 µM
same,TGI,[12],40.1 µM
same,GI50,[13],33.7 µM
same,GI50,[14],17.8 µM
same,GI50,[15],16 µM
same,GI50,[16],4.12 µM
same,GI50,[17],27 µM
same,GI50,[18],12.3 µM
same,GI50,[19],34.9 µM
same,GI50,[20],17.9 µM
same,TGI,[20],26.6 µM
same,GI50,[21],10.7 µM
same,GI50,[22],41.7 µM
same,TGI,[22],94.2 µM
same,GI50,[23],27.9 µM
same,GI50,[24],28.6 µM
same,GI50,[25],28 µM
same,GI50,[26],> 100 µM
same,GI50,[27],24.5 µM
same,GI50,[28],6.63 µM
same,GI50,[29],37.5 µM
same,GI50,[30],39.7 µM
same,GI50,[31],34.3 µM
same,GI50,[32],19.3 µM
same,GI50,[33],20.7 µM
same,GI50,[34],23.2 µM
same,TGI,[34],34.7 µM
same,GI50,[35],32.3 µM
same,GI50,[36],64.1 µM
same,GI50,[37],29.2 µM
same,GI50,[38],52.2 µM
same,GI50,[39],27.2 µM
same,TGI,[39],53.4 µM
same,Activity,[40],<=32%
same,Activity,[41],<=32%
same,GI50,[42],25.6 µM
same,GI50,[43],15.4 µM
same,GI50,[44],34.9 µM
same,GI50,[45],12.8 µM
same,GI50,[46],93 µM
same,GI50,[47],27.6 µM
